Where two headings read alike, the source gives them in different places.
What was measured:
SW780 cells = assay: Oxic and anoxic anti-proliferative activity of the prodrugs; assay type: cell-based
[1] = Pulse radiolysis of prodrugs; assay type: physicochemical
[2] = Murine plasma pharmacokinetics assay; assay type: in vivo, NIH-III nude mice; conditions: for AUC(0-inf) / half-life / Cmax / Tmax / AUC(0-t): female, NIH-III nude, mouse, ip, plasma; for AUC(0-t): observed, read-out: AUC0-24
Protocol: Compound 204 was formulated in water for injection at 2 or 4 mg/ml to be administered by intraperitoneal injection at 0.02 ml/g body weight to achieve a 40 or 80 mg/kg dose. Specific pathogen-free female NIH-III mice (Crl:NIH Lyst^bg Foxn1^nu Btk^xid) were obtained from the Vernon Jansen Unit (VJU), The University of Auckland. To minimize exogenous infection, mice were maintained in individually ventilated cages at 6 mice per cage (Sealsafe Plus Mouse AERO, Tecniplast) and handled in accordance with the Guide for the Care and Use of Laboratory Animals, The University of Auckland. Mice had access to water and food ad libitum. Following dosing, at the specified time points (0.5, 1, 2, 4, 6 and 24 hours, n=3 per time point) mice were anaesthetised (isoflurane inhalation) and blood collected through cardiac puncture. Mice were subsequently culled via cervical dislocation whilst anaesthetized. Blood was collected in ice cold tubes (BD Microtainer® containing K2EDTA) and centrifuged (7 minutes at 6,500 rpm) to separate the plasma fraction. Plasma samples were stored at −80° C. until analysis. Control mice were injected with vehicle only and plasma collected as described. Prior to analysis by LC-MS/MS, calibration standards were prepared in control mouse plasma with a synthetic standard of Compound 204. Plasma samples expected to be outside the range of these standards were diluted in control mouse plasma. Standards and samples were mixed with 3 volumes of ice-cold acetonitrile containing internal standard (2 uL) and then centrifuged at 13000 rpm for 10 minutes at 4° C. The resulting supernatant was diluted in 2 volumes of 0.01% formic acid in water and 10 uL injected onto the LC-MS/MS system using an established quantitative analysis method. Pharmacokinetic parameters resulting from model fit of Compound 204 plasma concentration-time data were then derived where Tmax=time at maximum concentration, Tmax-obs=time at maximum observed concentration, Cmax-obs=maximum concentration observed, Cmax=maximum concentration determined by model, T1/2=half-life of Compound 204 in plasma during elimination phase, AUC0-24=observed area under the mean concentration-time curve, AUC0-inf=area under the concentration-time curve of the model fit.

[3] = tested on: SW780 (FGFR3-amplified bladder cancer) xenograft; assay: Anti-tumour activity, SW780 xenograft; assay type: in vivo, NIH-III nude mice; conditions: q3dx4, IP
Protocol: Specific pathogen-free homozygous female NIH-III nude mice (Charles River Laboratories, Wilmington, Mass.) were inoculated subcutaneously with a single cell suspension of SW780 cells (8×10^6 cells/100 μL with Matrigel; right flank) or SNU-16 cells (10×10^6 cells/100 μL; right flank). When tumour xenografts were established (typically 7-14 days for SW780 and 21-28 days for SNU-16) mice were randomized to treatment groups. Test compounds of the present invention were prepared in Water for Injection (WFI). Mice were dosed by intraperitoneal injection (0.01-0.03 ml/g) using the stated schedules and dose levels. […] Tumour size and body weights were measured at regular intervals. Tumour volume was calculated as […] (length×width^2)/6.

[4] = tested on: SNU-16 (FGFR2-amplified) gastric cancer xenograft; assay: Anti-tumour activity, SNU-16 xenograft; assay type: in vivo, NIH-III nude mice; conditions: 80 mg/kg, q7dx2, IP; to day 11
Protocol: Specific pathogen-free homozygous female NIH-III nude mice (Charles River Laboratories, Wilmington, Mass.) were inoculated subcutaneously with a single cell suspension of SW780 cells (8×10^6 cells/100 μL with Matrigel; right flank) or SNU-16 cells (10×10^6 cells/100 μL; right flank). […] Test compounds of the present invention were prepared in Water for Injection (WFI). Mice were dosed by intraperitoneal injection (0.01-0.03 ml/g) using the stated schedules and dose levels. […] Tumour size and body weights were measured at regular intervals. Tumour volume was calculated as n (length×width^2)/6.

[5] = tested on: 4T1 murine syngeneic breast cancer cells; assay: Anti-tumour activity, murine 4T1 model; assay type: in vivo, BALB/c mice; conditions: 70 mg/kg IP, controls 16 days
Protocol: Studies in BALB/c mice: 4T1 murine syngeneic breast cancer cells (7.5×10^6 cells/mouse) were implanted into the subcutaneous space, in the right flank of immunocompetent BALB/c female mice. Treatment with Compound 204 started at the stated day post cell-implant. Compound 204 was administered intraperitoneally at the stated dose and schedule in Water for Injection. Tumour measurements and body weight were recorded every day, until all tumours increased their volume 4-fold (RTV^4) from day0 of experimental assignment.

[6] = tested on: SiHa xenograft (tumour hypoxia); assay: EF5 immunostaining and MALDI imaging mass spectrometry assay; assay type: in vivo, NIH-III nude mice; conditions: 86 mg/kg IP, tumours collected after 24 hours; EF5 60 mg/kg
Protocol: SiHa cervical tumour cells were implanted into the flanks of female NIH-III mice to form subcutaneous xenografts. […] Vehicle and drug-treated SiHa tumours were sectioned at 12 um and collected by melting. Five serial sections were collected from each sample such that sections 1, 3 and 5 were mounted on a standard glass slide for optical microscopy, while sections 2 and 4 were mounted on ITO coated glass slides for MALDI imaging. Slides were stored at −80° C. until required.
Imaging mass spectrometry was performed at 30 um spatial resolution using a MALDI FT-ICR mass spectrometer (Bruker Solarix-XR 7T) operating in positive ion mode. […] They were washed in dH2O for 5 minutes, in Tris-Buffered saline (TBS) for 10 minutes and blocked with 10% goat serum in TBS and 1% Tween-20, for 1 h, at room temperature. Sections were then incubated with Alexa488-ELK3-51 antibody (Hypoxia-Imaging.org, University of Pennsylvania, US) that recognises EF5 adducts in hypoxic cells and counterstained with DAPI.

H520 cells = assay: Oxic and anoxic anti-proliferative activity of the prodrugs
SUM52 cells = assay: as above

SMILES: COc1cc(OC)c(Cl)c(N2Cc3cnc(Nc4ccccc4)nc3N(C3CCN(C(=O)/C=C/C[N+](C)(C)Cc4c([N+](=O)[O-])ncn4C)CC3)C2=O)c1Cl.[Br-] [Compound 204, (E)-4-(4-(3-(2,6-dichloro-3,5-dimethoxyphenyl)-2-oxo-7-(phenylamino)-3,4-dihydropyrimido[4,5-d]pyrimidin-1(2H)-yl)piperidin-1-yl)-N,N-dimethyl-N-((1-methyl-4-nitro-1H-imidazol-5-yl)methyl)-4-oxobut-2-en-1-aminium bromide]
- IC50 (SW780 cells; Homo sapiens, SW780, oxic conditions, read-out: Cellular Anti-proliferative IC50, SW780, Oxic): 1390 nM
- fold less potent than the inhibitor compound 112 at inhibiting proliferation (deactivation) (SW780 cells; SW780, oxic): 143 fold
- first order rate of fragmentation kfrag [1]: 30 s⁻¹
- change of maximum plasma concentration and area under the plasma concentration-time curve with increase in dose ([2]; 40 and 80 mg/kg intraperitoneal): linear increase
- time to maximum plasma concentration ([2]; doses of 40 and 80 mg/kg intraperitoneal): 2 to 3 h
- AUC(0-inf) ([2]; 40 mg/kg intraperitoneal, model fit): 262 ± 10.8 µM·h
- AUC(0-inf) ([2]; 80 mg/kg intraperitoneal, model fit): 606 ± 103 µM·h
- half-life ([2]; 40 mg/kg, 40 mg/kg intraperitoneal, elimination phase, read-out: T1/2 (converted)): 1.21 ± 0.06 h
- Cmax ([2]; 40 mg/kg, 40 mg/kg intraperitoneal, model fit, read-out: Cmax): 54.9 ± 2.38 µM
- Tmax ([2]; 40 mg/kg, 40 mg/kg intraperitoneal, model fit, read-out: Tmax): 1.75 ± 0.06 h
- AUC(0-t) ([2]; 40 mg/kg, 40 mg/kg intraperitoneal): 382 µM·h
- Cmax ([2]; 40 mg/kg, 40 mg/kg intraperitoneal, read-out: Cmax-obs): 51.8 ± 7.46 µM
- Tmax ([2]; 40 mg/kg, 40 mg/kg intraperitoneal, read-out: Tmax-obs): 2 h
- half-life ([2]; 80 mg/kg, 80 mg/kg intraperitoneal, elimination phase, read-out: T1/2 (converted)): 1.79 ± 0.36 h
- Cmax ([2]; 80 mg/kg, 80 mg/kg intraperitoneal, model fit, read-out: Cmax): 86.4 ± 10.4 µM
- Tmax ([2]; 80 mg/kg, 80 mg/kg intraperitoneal, model fit, read-out: Tmax): 2.58 ± 0.36 h
- AUC(0-t) ([2]; 80 mg/kg, 80 mg/kg intraperitoneal): ~900 µM·h
- Cmax ([2]; 80 mg/kg, 80 mg/kg intraperitoneal, read-out: Cmax-obs): 77.3 ± 14.7 µM
- Tmax ([2]; 80 mg/kg, 80 mg/kg intraperitoneal, read-out: Tmax-obs): 4 h
- half-life ([2]; 80 mg/kg, doses of 40 and 80 mg/kg intraperitoneal, read-out: plasma half-life): 1.2 to 1.8 h
- time for tumours to reach RTV4 ([3]; 100 umol/kg dose): approximately 26 days
- tumour response at the higher doses tested ([3]; 30 to 133 umol/kg/dose): regressed the tumours
- tumour response [4]: regressed following each drug administration
- median survival time ([5]; q2dx3): 18 days
- median survival time ([5]; q3dx3): 20 days
- median survival time ([5]; q4dx3): 21 days
- median survival time ([5]; q5dx3): 22 days
- metabolism of prodrug and release of FGFR inhibitor compound 112 in tumours [6]: hypoxia-selective metabolism
- fold less potent than the inhibitor compound 112 at inhibiting proliferation (deactivation) (H520 cells; H520, oxic): 307 fold
- Hypoxic Cytotoxicity Ratio (HCR), H520 (H520 cells; ratio of oxic and anoxic IC50): 27
- IC50 (H520 cells; read-out: Cellular Anti-proliferative IC50, H520, Anoxic, 4 hours of anoxia, remainder of assay oxic): 47 nM
- IC50 (H520 cells; read-out: Cellular Anti-proliferative IC50, H520, Oxic, oxic conditions): 1260 nM
- fold less potent than the inhibitor compound 112 at inhibiting proliferation (deactivation) (SUM52 cells; SUM52, oxic): 296 fold
- Hypoxic Cytotoxicity Ratio (HCR), SUM52 (SUM52 cells; ratio of oxic and anoxic IC50): 12
- IC50 (SUM52 cells; read-out: Cellular Anti-proliferative IC50, SUM52, Anoxic, 4 hours of anoxia, remainder of assay oxic): 17 nM
- IC50 (SUM52 cells; read-out: Cellular Anti-proliferative IC50, SUM52, Oxic, oxic conditions): 207 nM
